Key:
Wnt signaling = experiment: Wnt-Luc reporter assay for pathway inhibition of Wnt signaling; assay type: cell-based, mouse (TM3 Wnt-Luc) or human (293 Wnt-Luc); not stated which; conditions: Wnt-Luc reporter cells co-cultured with L-cell Wnt3a cells, 24 hours
Method in brief: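 Stable STF (Wnt-responsive luciferase) reporter lines, mouse TM3 or human HEK293, co-cultured with Wnt3a-producing L-cells in DMEM with 2% FBS and treated with compound for 24 h. Firefly luciferase read by Bright-Glo; IC50 taken as concentration giving 50% reduction in luminescence.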

[1] = Comparative stability in simulated gastric fluid (SGF), degradation by LCMS; assay type: physicochemical; conditions: 50° C. SGF, LCMS UV peak areas at 254 nm
Experimental: The stability of exemplified compounds of the invention were compared with N-(hetero)aryl, 2-(heteroy)aryl-substituted acetamides. Test compounds were dissolved or suspended in a specified media (e.g. simulated gastric fluid (SGF)). The resulting solution or suspension was kept at the testing temperature (e.g. 50° C.) for a given time (e.g. 4 hours), and the extent of degradation was quantified by LCMS using the respective UV absorption peak areas at 254 nm.

[2] = luciferase signal reduced by 50%

**Q.** Which IC50 (Wnt signaling; [2]) does the source give for `Cc1cc(-c2cnccn2)cnc1C(=O)NCc1ccc(-c2ccnc(C(F)(F)F)c2)nc1` [compound 87, 3-methyl-5-(pyrazin-2-yl)-N-({6-[2-(trifluoromethyl)pyridin-4-yl]pyridin-3-yl}methyl)pyridine-2-carboxamide] here?
**A.** 16 nM

**Q.** For `Cc1cc(-c2ncc(CNC(=O)c3ccn(-c4cccc(F)c4)c(=O)c3)cc2C)ccn1` [compound 88, 1-(3-fluorophenyl)-N-{[5-methyl-6-(2-methylpyridin-4-yl)pyridin-3-yl]methyl}-2-oxo-1,2-dihydropyridine-4-carboxamide], which IC50 (Wnt signaling; [2]) is on record?
**A.** 4.4 nM

**Q.** For `Cc1cc(-c2ccc(CNC(=O)c3ccn(-c4cccc(F)c4)c(=O)c3)cn2)ccn1` [compound 89, 1-(3-Fluorophenyl)-N-((2′-methyl-[2,4′-bipyridin]-5-yl)methyl)-2-oxo-1,2-dihydropyridine-4-carboxamide], which IC50 (Wnt signaling; [2]) is on record?
**A.** 12.5 nM

**Q.** With `Cc1cc(CNC(=O)c2ccn(-c3cccc(F)c3)c(=O)c2)cnc1-c1ccnc(C(F)(F)F)c1` [compound 90, 1-(3-fluorophenyl)-N-({5-methyl-6-[2-(trifluoromethyl)pyridin-4-yl]pyridin-3-yl}methyl)-2-oxo-1,2-dihydropyridine-4-carboxamide] as the molecule, how does the IC50 (Wnt signaling; [2]) read?
**A.** 6.6 nM

**Q.** For `Cc1cc(-n2ccc(CNC(=O)c3ccc(-c4cccc(F)c4)cn3)cc2=O)ccn1` [compound 91, 5-(3-fluorophenyl)-N-{[1-(2-methylpyridin-4-yl)-2-oxo-1,2-dihydropyridin-4-yl]methyl}pyridine-2-carboxamide], which IC50 (Wnt signaling; [2]) is on record?
**A.** 3.8 nM

**Q.** With `Cc1cn(-c2ccc(CNC(=O)c3ccc(-c4ccccc4)cc3)cc2)cn1` [compound 92, N-(4-(4-methyl-1H-imidazol-1-yl)benzyl)biphenyl-4-carboxamide] as the molecule, how does the IC50 (Wnt signaling; [2]) read?
**A.** 0.5 nM

**Q.** For `O=C(NCC1CCN(C(=O)c2ccnc(F)c2)CC1)c1ccc(-c2cccc(F)c2)nc1` [compound 93, N-((1-(2-Fluoroisonicotinoyl)piperidin-4-yl)methyl)-6-(3-fluorophenyl)nicotinamide], which IC50 (Wnt signaling; [2]) is on record?
**A.** 92 nM

**Q.** With `O=C(NCC1CN(C(=O)c2ccnc(F)c2)C1)c1ccc(-c2cccc(F)c2)nc1` [compound 94, 6-(3-fluorophenyl)-N-({1-[(2-fluoropyridin-4-yl)carbonyl]azetidin-3-yl}methyl)pyridine-3-carboxamide] as the molecule, how does the IC50 (Wnt signaling; [2]) read?
**A.** 290 nM

**Q.** Which IC50 (Wnt signaling; [2]) does the source give for `Cc1cc(-c2ccc(CNC(=O)c3ccc(Oc4ccccc4)nc3)cn2)ccn1` [compound 95, N-((2′-methyl-[2,4′-bipyridin]-5-yl)methyl)-6-phenoxynicotinamide] here?
**A.** 420 nM

**Q.** With `Cc1cc(C(=O)NCc2cnc(-c3ccnc(C(F)(F)F)c3)c(C)c2)ncc1-c1ncccc1C` [compound 96] as the molecule, how does the IC50 (Wnt signaling; Table 2) read?
**A.** > 2000 nM

**Q.** Which IC50 (Wnt signaling; Table 2) does the source give for `Cc1cc(-c2ncc(CNC(=O)c3cc(C)c(-c4cccc(F)c4)cn3)cc2C)ccn1` [compound 97] here?
**A.** > 1800 nM

**Q.** With `Cc1cc(C(=O)NCc2cnc(-c3ccnc(C(F)(F)F)c3)c(C)c2)ncc1-c1cccnc1C` [compound 98] as the molecule, how does the IC50 (Wnt signaling; Table 2) read?
**A.** > 1200 nM

**Q.** Which IC50 (Wnt signaling; Table 2) does the source give for `Cc1cc(C(=O)NCc2cnc(-c3ccnc(C(F)(F)F)c3)c(C)c2)ncc1-c1cccc(F)c1C` [compound 99] here?
**A.** 1100 nM

**Q.** With `CC(=O)N1CCN(c2ccc(C(=O)NCc3ccc(-c4ccnnc4)cc3)cc2)CC1` [compound 100] as the molecule, how does the IC50 (Wnt signaling; Table 2) read?
**A.** > 20000 nM

**Q.** For `Cc1cc(-c2ncc(CNC(=O)c3ccc(-c4cnccn4)cn3)cc2F)ccn1` [drawing 199], which “% degradn. @ 4 hr” value [1] is on record?
**A.** ~0%

**Q.** And the “% degradn. @ 8 hr” value [1]?
**A.** ~0. %

**Q.** What about the “% degradn. @ 24 hr” value [1] of the same molecule?
**A.** ~0%

**Q.** With `Cc1cc(CNC(=O)c2ccc(-c3cnccn3)cn2)cnc1-c1ccnc(C(F)(F)F)c1` [drawing 200] as the molecule, how does the “% degradn. @ 24 hr” value [1] read?
**A.** ~0%

**Q.** For `O=C(Cc1ccc(-c2ccnnc2)c(C(F)(F)F)c1)Nc1ccc(-c2cccnn2)cn1` [reference compound], which “% degradn. @ 4 hr” value [1] is on record?
**A.** 11.5%

**Q.** And the “% degradn. @ 8 hr” value [1]?
**A.** 16.6%

**Q.** And the “% degradn. @ 24 hr” value [1]?
**A.** 26.7%

**Q.** With `Cc1cc(CC(=O)Nc2ccc(-c3cccc(F)c3)cn2)cnc1-c1ccnnc1` [reference compound] as the molecule, how does the “% degradn. @ 24 hr” value [1] read?
**A.** 25.0%

— patent US9181235B2, “Substituted pyridines for modulating the WNT signaling pathway” (NOVARTIS AG, priority 2010, dated 2015)
